# From patent US20090253618A1, “NEURONAL DIFFERENTIATION-INDUCING PEPTIDE AND USE THEREOF” (TOAGOSEI CO., LTD, priority 2005, published 2009)
# Ends that are not written are not given here.
# Columns and labels:
# [1] = tested on: neural stem cells procured from mice; experiment: Neuronal differentiation-inducing activity in mouse neural stem cell culture (immune antibody procedure, MAPs and NeuN markers); assay type: cell-based; conditions: same tests as for samples 1 and 6 (10 ng/mL and 100 ng/mL, 24 hours), concentration of the result not stated
# [2] = tested on: adipose stem cells procured from humans; experiment: Neuronal differentiation-inducing activity in human adipose stem cell culture (immune antibody procedure, MAPs and NeuN markers); assay type: cell-based; conditions: same tests as for samples 1 and 6 (10 ng/mL and 100 ng/mL, 24 hours), concentration of the result not stated
Substance,degree of neuronal differentiation [1],degree of neuronal differentiation [2]
"YARAAARQARA-TLLSLCRVAV (YARAAARQARATLLSLCRVAV) [sample 16, PTD4 plus 10 residues from the N terminal of the BC-box of mASB-1]",significant neuronal differentiation,significant neuronal differentiation
YARAAARQARA-SLQHICRTVICNCTT (YARAAARQARASLQHICRTVICNCTT) [sample 14],significant neuronal differentiation,significant neuronal differentiation
YARAAARQARA-SLQDLCCRAVVSCTP (YARAAARQARASLQDLCCRAVVSCTP) [sample 10],significant neuronal differentiation,significant neuronal differentiation
YARAAARQARA-PLQELCRQRIVAAVG (YARAAARQARAPLQELCRQRIVAAVG) [sample 11],significant neuronal differentiation,significant neuronal differentiation
YARAAARQARA-SLQYLCKFVI (YARAAARQARASLQYLCKFVI) [sample 22],significant neuronal differentiation,significant neuronal differentiation
YARAAARQARA-PLAHLCRLRVRKAIG (YARAAARQARAPLAHLCRLRVRKAIG) [sample 7],significant neuronal differentiation,significant neuronal differentiation
"YARAAARQARA-SLQYLCRFVI (YARAAARQARASLQYLCRFVI) [sample 15, PTD4 plus 10 residues from the N terminal of the BC-box of hSOCS-6]",significant neuronal differentiation,significant neuronal differentiation
YARAAARQARA-SLQYICRAVICRCTT (YARAAARQARASLQYICRAVICRCTT) [sample 9],significant neuronal differentiation,significant neuronal differentiation
YARAAARQARA-SLQYLALKALVTPKK (YARAAARQARASLQYLALKALVTPKK-NH2) [sample 19],significant neuronal differentiation,significant neuronal differentiation
YARAAARQARA-TLQHFCRLAINKCT (YARAAARQARATLQHFCRLAINKCT) [sample 12],significant neuronal differentiation,significant neuronal differentiation
YARAAARQARA-SLQHLCRFRIRQLVR (YARAAARQARASLQHLCRFRIRQLVR) [sample 4],significant neuronal differentiation,significant neuronal differentiation
YARAAARQARA-SLTHLCRLEIRSSIK (YARAAARQARASLTHLCRLEIRSSIK) [sample 8],significant neuronal differentiation,significant neuronal differentiation
YARAAARQARA-SLQHICRMSIRRVMS (YARAAARQARASLQHICRMSIRRVMS) [sample 2],significant neuronal differentiation,significant neuronal differentiation
YARAAARQARA-TLLSLCRVAVRRALG (YARAAARQARATLLSLCRVAVRRALG) [sample 3],significant neuronal differentiation,significant neuronal differentiation
"YARAAARQARA-SLQHICRMSI (YARAAARQARASLQHICRMSI) [sample 17, PTD4 plus 10 residues from the N terminal of the BC-box of mWSB-1]",significant neuronal differentiation,significant neuronal differentiation
YARAAARQARA-SLQHLCRLVINRLVA (YARAAARQARASLQHLCRLVINRLVA) [sample 24],significant neuronal differentiation,significant neuronal differentiation
"YARAAARQARA-ALFELCGRAV (YARAAARQARAALFELCGRAV) [sample 23, PTD4 plus 10 residues from the N terminal of the BC-box of MUF1]",significant neuronal differentiation,significant neuronal differentiation
YARAAARQARA-PLMDLCRRSVRLALG (YARAAARQARAPLMDLCRRSVRLALG) [sample 20],significant neuronal differentiation,significant neuronal differentiation
YARAAARQARA-SLKHLCRKALRSFLT (YARAAARQARASLKHLCRKALRSFLT) [sample 5],significant neuronal differentiation,significant neuronal differentiation
YARAAARQARA-TLQHLCRKTVNGHLD (YARAAARQARATLQHLCRKTVNGHLD) [sample 13],significant neuronal differentiation,significant neuronal differentiation
YARAAARQARA-SLQFLALKALISERR (YARAAARQARASLQFLALKALISERR-NH2) [sample 21],significant neuronal differentiation,significant neuronal differentiation
YARAAARQARA-SLQYLCRFVIRQYTK (YARAAARQARASLQYLCRFVIRQYTK) [sample 18],significant neuronal differentiation,significant neuronal differentiation
